Read-outs that look alike come from different tables or passages of the source.
Experiments:
[1] = test system: Acanthamoeba castellanii T4 isolate (ATCC 50370) trophozoites; assay: CellTiter-Glo 2.0 trophocidal assay, A. castellanii; assay type: cell-based; settings: Acanthamoeba castellanii, ATCC50370, 72 h, read-out: Acanthamoeba castellanii EC50 ± SD
From the text: This isolate was purchased from American Type Culture Collection (ATCC). […] For sub-culturing, cells were mechanically harvested to detach the cells from the culture flasks.

[2] = test system: Balamuthia mandrillaris (CDC:V039; ATCC 50209) trophozoites; assay: CellTiter-Glo 2.0 trophocidal assay, B. mandrillaris; assay type: cell-based
From the text: For sub-culturing, 0.25% Trypsin–EDTA (Gibco) cell detachment reagent was used to detach the cells from the culture flasks.

[3] = test system: Naegleria fowleri (ATCC 30215) trophozoites; assay: microbe, parasite or virus in culture
Experimental: Trophozoites were routinely grown axenically at 34°C, 5% CO2, in Nelson’s complete medium (NCM) in non-vented 75 cm^2 tissue culture flasks (Olympus), until the cells were 80–90% confluent. For sub-culturing, cells were placed on ice to detach the cells from the culture flasks. […] Complete NCM media is prepared by the addition of 10% fetal bovine serum (FBS) and 100 U/mL penicillin, and 100 μg/mL streptomycin antibiotics.
Trophozoites were routinely cultured as described above and only logarithmic trophozoites were used.
All assays were incubated at each of the parasites’ representative growth temperatures, described above, for 72 h. At the 72-h time point, 25 μL of CellTiter-Glo 2.0 reagent was added to all wells of the 96-well plates by hand. The plates were protected from light and contents were mixed using an orbital shaker at 300 rpm at room temperature for 2 min to induce cell lysis. After shaking, the plates were equilibrated at room temperature for 10 min to stabilize the luminescent signal. The ATP luminescent signal (relative light units; RLUs) were measured […] with a SpectraMax I3X plate reader (Molecular Devices, Sunnyvale, CA, United States). […] Values reported are from a minimum of three biological replicates with standard deviation.

[4] = Balamuthia mandrillaris, ATCC50209, 72 h, read-out: Balamuthia mandrillaris EC50 ± SD, logarithmic trophozoites, 72 h, n = 3 (converted)
[5] = logarithmic trophozoites, 72 h, n = 3
[6] = Naegleria fowleri, 72 h, read-out: Naegleria fowleri EC50 ± SD, logarithmic trophozoites, 72 h, n = 3 (converted)
[7] = Balamuthia mandrillaris, ATCC50209, 72 h, logarithmic trophozoites, 72 h, n = 3, read-out: Balamuthia mandrillaris EC50 ± SD
[8] = Naegleria fowleri, ATCC30215, 72 h, read-out: Naegleria fowleri EC50 ± SD, logarithmic trophozoites, 72 h, n = 3 (converted)
[9] = Balamuthia mandrillaris, ATCC50209, 72 h, read-out: Balamuthia mandrillaris EC50 ± SD

SMILES | EC50 [2, 4] | EC50 [3, 6] | EC50 [2, 7] | EC50 [3, 8] | further results
CC(=O)c1ccc2c(c1)c1cc(C(C)=O)ccc1n2CCN1CC(F)C1 [Compound S39] | > 20 µM |  |  |  | EC50 [1]: > 20 µM
CC(=O)c1ccc2c(c1)c1cc(C(C)=O)ccc1n2CCNC1CCCC1 [Compound 8k] | 7.4 ± 0.36 µM |  |  |  | 
CN1CCC2(CC1)CCN(c1ncc(-c3ccc4c(Nc5cnccn5)ccnc4c3)cn1)CC2 [Compound S35] |  | > 20 µM | > 20 µM |  | EC50 [1, 5]: > 20 µM
Cc1n[nH]c(Nc2cccc3c2CN(C)C3=O)c1C [Compound S8, 4-((3,4-Dimethyl-1H-pyrazol-5-yl)amino)-2-methylisoindolin-1-one] | > 20 µM |  |  |  | EC50 [1]: > 20 µM
CC(=O)c1ccc2c(c1)c1cc(C(C)=O)ccc1n2CCNCCN(C)C [Compound S42] | > 20 µM |  |  |  | EC50 [1]: > 20 µM
CC(=O)c1ccc2c(c1)c1cc(C(C)=O)ccc1n2CCN1CC(N(C)C)C1 [Compound S41] | > 20 µM |  |  |  | EC50 [1]: > 20 µM
[H]/N=C(\N/C(=N/[H])NCCCCCCNC(=N)NC(=N)Nc1ccc(Cl)cc1)Nc1ccc(Cl)cc1 [Chlorhexidine, reference compound] |  |  | 1.6 ± 0.17 µM | 5.8 ± 0.22 µM | EC50 [1, 5]: 11 ± 3.5 µM
CC(=O)c1ccc2c(c1)c1cc(C(C)=O)ccc1n2CCNC1CCCCC1 [Compound 8a] | 6.8 ± 0.1 µM |  |  |  | 
c1nc2c(N3CCOCC3)nc(Nc3ccsc3)nc2[nH]1 [Compound S25] |  | > 20 µM | > 20 µM |  | EC50 [1, 5]: > 20 µM
c1cnc(Nc2ccnc3cc(C4CCCNC4)ccc23)cn1 (stereo not drawn) [Compound S18, 7-(Piperidin-3-yl)-N-(pyrazin-2-yl)quinolin-4-amine] |  |  | > 20 µM | > 20 µM | EC50 [1, 5]: > 20 µM
FC(F)(F)CNc1nc(Nc2ccsc2)nc2[nH]cnc12 [Compound 6a] |  |  |  | 11 ± 0.6 µM | 
Cn1cc(-c2ccnc3[nH]c(-c4ccc(C5CCCN5)cc4)cc23)cn1 (stereo not drawn) [Compound 5b] | 7.25 ± 0.7 µM |  |  |  | 
CC(=O)c1ccc2c(c1)c1cc(C(C)=O)ccc1n2CCn1ccnc1 [Compound S43] | > 20 µM | > 20 µM |  |  | EC50 [1]: > 20 µM
c1nc2c(NCCN3CCCC3)nc(Nc3ccsc3)nc2[nH]1 [Compound 6d] |  |  |  | > 20 µM | 
CC(=O)c1ccc2c(c1)c1cc(C(C)=O)ccc1n2CCN1CCCOCC1 [Compound 8j] | 3.3 ± 0.24 µM | 10 ± 1.4 µM |  |  | 
CC(C)(O)c1nn2ncccc2c1-c1ccnc(Nc2ccc(C(N)=O)cc2)n1 [Compound S27] |  | > 20 µM |  |  | EC50 [1]: > 20 µM; EC50 [2, 9]: > 20 µM
CC(=O)c1ccc2c(c1)c1cc(C(C)=O)ccc1n2CCCN(C)C [Compound 8f] |  |  | 19 ± 1.1 µM | 17 ± 0.2 µM | 
CN1CCN(c2ncc(-c3ccc4c(Nc5ccc(OCc6cccc(F)c6)c(Cl)c5)ccnc4c3)cn2)CC1 [Compound 7a] |  |  |  | 16 ± 4.1 µM | lipophilic ligand efficiency (LLE) ([3]; N. fowleri, LLE calculated as pEC50-LogD7.4): 1.40
Cn1cc(-c2ccnc3[nH]c(-c4ccc(C(N)=O)cc4)cc23)cn1 [Compound 5e] | 1.8 ± 0.24 µM |  |  |  | 
CC(=O)c1ccc2c(c1)c1cc(C(C)=O)ccc1n2-c1ccc(N(C)C)cc1 [Compound S37] |  | > 20 µM | > 20 µM |  | EC50 [1, 5]: > 20 µM
CC(=O)c1ccc2c(c1)c1cc(C(C)=O)ccc1n2CCN1CCOC[C@H]1C [Compound 8l] | 12 µM |  |  |  | EC50 ([2]; read-out: Balamuthia mandrillaris EC50 ± SD, logarithmic trophozoites, 72 h, n = 3): 13 ± 0.35 µM
Cn1cc(-c2cnc3[nH]cc(-c4cccnc4)c3c2)cn1 [Compound 4d] |  |  |  | ≤ 14 µM | EC50 ([3]; read-out: Naegleria fowleri EC50 ± SD, logarithmic trophozoites, 72 h, n = 3): 8.4 ± 0.71 µM
CCC(C)(C)C(=O)O[C@H]1C[C@@H](C)C=C2C=C[C@H](C)[C@H](CC[C@@H]3C[C@@H](O)CC(=O)O3)[C@H]21 [Simvastatin, reference compound] |  |  | 6.9 ± 0.04 µM |  | 

SMILES | EC50 [2, 4] | EC50 [3, 6] | EC50 [2, 7] | EC50 [3, 8] | further results
CC(=O)c1ccc2c(c1)c1cc(C(C)=O)ccc1n2CCNC1CCCCCC1 [Compound 8h] | 7.3 ± 0.38 µM |  |  |  | 
CN1CC2(CCN(c3ncc(-c4ccc5c(Nc6cnccn6)ccnc5c4)cn3)C2)C1 [Compound 7b] |  |  | 1.4 ± 0.17 µM |  | 
c1nc2c(N3CCC3)nc(Nc3ccsc3)nc2[nH]1 [Compound 6b] |  |  |  | 14 ± 5.7 µM | 
Cn1cc(Nc2nc(NCC(F)(F)F)c3ncn(C)c3n2)cn1 [Compound 6c] |  |  |  | > 20 µM | 
Cc1n[nH]c(Nc2cccc3c2CCO3)c1C [Compound S6, N-(2,3-Dihydrobenzofuran-4-yl)-3,4-dimethyl-1H-pyrazol-5-amine] | > 20 µM |  |  |  | EC50 [1]: > 20 µM
CC(=O)c1cc2c3cc(C(C)=O)c(O)cc3n(CCCN(C)C)c2cc1O [Compound 8e] |  |  |  | 17 ± 0.65 µM | 
CC(=O)c1ccc2c(c1)c1cc(C(C)=O)ccc1n2CCN1CC(C)C1 [Compound 8i] | 7.3 ± 0.28 µM | 18 ± 0.45 µM |  |  | 
N#Cc1cccc(Nc2nccc(-c3c(CO)nn4nc(N5CCOCC5)ccc34)n2)c1 [Compound S29] |  | > 20 µM |  |  | EC50 [1]: > 20 µM; EC50 [2, 9]: > 20 µM
CC(C)(C)c1ccc(Nc2nccc(-c3c(-c4ccc(C(F)(F)F)cc4)nn4ncccc34)n2)cc1 [Compound S26] |  | > 20 µM |  |  | EC50 [1]: > 20 µM; EC50 [2, 9]: > 20 µM
N=C(N)c1ccc(OCCCCCOc2ccc(C(=N)N)cc2)cc1 [Pentamidine, reference compound] |  |  | 18.4 ± 1.47 µM | > 50 µM | EC50 [1, 5]: 4.2 ± 0.08 µM
CC(=O)c1cc2c3cc(C(C)=O)c(O)cc3n(CCNC(C)C)c2cc1O [Compound 8b] |  |  | 11 ± 0.35 µM | 8.8 ± 0.71 µM | 
CN1CCCN(c2ncc(-c3ccc4c(Nc5cnccn5)ccnc4c3)cn2)CC1 [Compound S33] |  | > 20 µM | > 20 µM |  | EC50 [1, 5]: > 20 µM
CC(=O)c1ccc2c(c1)c1cc(C(C)=O)ccc1n2CCOC(C)C [Compound S40] | > 20 µM |  |  |  | EC50 [1]: > 20 µM
N#Cc1cccc(-c2c[nH]c3ncc(-c4ccncc4)cc23)c1 [Compound 4f] |  |  |  | > 20 µM | 
Brc1ccc2nc(-c3ccccn3)c(Nc3ccc4c(c3)OCO4)n2c1 [Compound 3e] |  |  |  | > 20 µM | EC50 [1, 5]: > 20 µM
CC[C@H]1OC(=O)[C@H](C)[C@@H](O[C@H]2C[C@@](C)(OC)[C@@H](O)[C@H](C)O2)[C@H](C)[C@@H](O[C@@H]2O[C@H](C)C[C@H](N(C)C)[C@H]2O)[C@](C)(O)C[C@@H](C)CN(C)[C@H](C)[C@@H](O)[C@]1(C)O [Azithromycin, reference compound] |  |  | > 20 µM | 0.02 ± 0.01 µM | EC50 [1, 5]: 0.26 ± 0.14 µM
CN1C[C@H]2C[C@@H]1CN2c1ncc(-c2ccc3c(Nc4cnccn4)ccnc3c2)cn1 [Compound S36] |  | > 20 µM | > 20 µM |  | EC50 [1, 5]: > 20 µM
CN1C[C@@H]2C[C@H]1CN2c1ncc(-c2ccc3c(Nc4cnccn4)ccnc3c2)cn1 [Compound S34] |  | > 20 µM | > 20 µM |  | EC50 [1, 5]: > 20 µM
Nc1cc(-c2cc3c4c(n[nH]c4c2)Nc2ccccc2O3)ncn1 [Compound 1b] |  |  | 1.8 ± 0.46 µM |  | EC50 [1, 5]: 12 ± 8.2 µM
c1cnn2ncc(-c3ccncc3)c2c1 [Compound S28] |  | > 20 µM |  |  | EC50 [1]: > 20 µM; EC50 [2, 9]: > 20 µM
CC(=O)c1ccc2c(c1)c1cc(C(C)=O)ccc1n2CCN1CCNCC1 [Compound S38] | > 20 µM | > 20 µM |  |  | EC50 [1]: > 20 µM
CC(=O)c1ccc2c(c1)c1cc(C(C)=O)ccc1n2CCN1CCCCC1 [Compound 8d] | 12 ± 0.26 µM | 4.3 ± 0.22 µM |  |  | 

From paper PMC10206040, “Identification of novel anti-amoebic pharmacophores from kinase inhibitor chemotypes” (Frontiers in Microbiology, 2023)
